# Results published in PubChem BioAssay (NCI).
# Several values for one entry are separate records, joined by “and”; a condition that tells them apart may be missing. Identical values can stand only once.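 A five-concentration, 48-hour dose response in 96-well plates underlies each endpoint, interpolated linearly between surrounding concentrations. GI50: concentration for 50% inhibition of growth. TGI denotes the concentration required for complete inhibition of growth.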
# Key:
# Test in all cases: NCI-60 cell line screen, 48 h
# UACC-62 melanoma = system: UACC-62 melanoma
# OVCAR-8 ovarian = system: OVCAR-8 ovarian
# CAKI-1 renal = system: CAKI-1 renal
# SK-MEL-2 melanoma = system: SK-MEL-2 melanoma
# OVCAR-4 ovarian = system: OVCAR-4 ovarian
# UO-31 renal = system: UO-31 renal
# HOP-92 NSCLC = system: HOP-92 NSCLC
# MCF7 breast = system: MCF7 breast
# HCT-15 colon = system: HCT-15 colon
# MALME-3M melanoma = system: MALME-3M melanoma
SMILES,GI50 (UACC-62 melanoma),TGI (UACC-62 melanoma) [µM],GI50 (OVCAR-8 ovarian),TGI (OVCAR-8 ovarian) [µM],GI50 (CAKI-1 renal),TGI (CAKI-1 renal) [µM],GI50 (SK-MEL-2 melanoma),TGI (SK-MEL-2 melanoma) [µM],GI50 (OVCAR-4 ovarian),TGI (OVCAR-4 ovarian) [µM],GI50 (UO-31 renal),TGI (UO-31 renal) [µM],GI50 (HOP-92 NSCLC) [µM],TGI (HOP-92 NSCLC) [µM],GI50 (MCF7 breast),TGI (MCF7 breast) [µM],GI50 (HCT-15 colon),TGI (HCT-15 colon) [µM],GI50 (MALME-3M melanoma),TGI (MALME-3M melanoma) [µM]
C[C@H]1[C@H](C)CC[C@]2(C(=O)O)CC[C@]3(C)C(=CC[C@@H]4[C@@]5(C)CC[C@H](OC(=O)/C=C\c6ccc(O)cc6)C(C)(C)[C@@H]5CC[C@]43C)[C@H]12,10.9 µM,22.8,2.6 µM,9.1,3.71 µM,15.6,28.9 µM,> 100,10.6 µM,28.8,13.6 µM,> 100,4.25,19.2,1.36 µM,3.63,3.08 µM,12.7,2.51 µM,13.2
CNC(=S)N/N=C(/C)CCC/C(C)=N/NC(=S)NC,,> 100,,> 100,,> 100,,> 100,,29.2,,> 100,,> 100,,0.563,,> 100,,> 100
CCOC(=O)c1c2c(n3cccc(F)c13)C(=O)c1ncccc1C2=O,0.222 µM,1.28,1.17 µM,7.47,0.0562 µM,21.8,4.81 µM,73.7,1.8 µM,11.3,0.0189 µM,1.42,2.22,9.24,0.0572 µM,1.27,0.0247 µM,12.2,0.541 µM,6.77
COc1cc2c(cc1C)NC(=O)/C2=C/c1c(C)nc2sc(C)cn12,38.9 µM,> 100,> 100 µM,> 100,52 µM,> 100,> 100 µM,> 100,> 100 µM,> 100,86.6 µM,> 100,22.1,> 100,64.1 µM,> 100,> 100 µM,> 100,60.1 µM,> 100
CCN1CCN(Cc2ccc3cc(C(=O)Nc4cc(NC(=O)c5ccc6c(c5)OCCO6)ccc4F)ccc3n2)CC1,0.0575 µM,1.19,0.0571 µM,12.5,0.018 µM,0.103,0.029 µM,0.118,0.0772 µM,1.91,0.0376 µM,1.13,0.0555,0.557,0.183 µM,6.75,0.0376 µM,2.25,0.0394 µM,0.42
CCNCCNc1cc(C2CCCC2)c(C#N)c2nc3ccccc3n12,1.92 µM,3.76,3.52 µM,10.6,3.59 µM,14.5,3.91 µM,16.1,3.22 µM,13,1.67 µM,3.18,2.08,4.4,2.58 µM,13.7,3.07 µM,12.9,1.73 µM,3.45
O=C(Nc1ncc(Cc2ccc(Cl)cc2)s1)c1ccc2c(c1)OCCO2,0.0543 µM,> 100,0.17 µM,> 100,0.0547 µM,39,0.343 µM,> 69.4,0.547 µM,> 52.1,0.0834 µM,> 100,2.12,> 100,0.0661 µM,> 100,0.0477 µM,> 100,0.059 µM,> 86.5
OCCCNC(=S)Nc1ccc(-c2nc3ccccc3s2)cc1,18.6 µM,41,33.7 µM,91.9,14.3 µM,40.6,31.6 µM,> 100,28.1 µM,> 100,12 µM,60.7,19.7,82.9,32.5 µM,> 100,16.7 µM,39.8,19.3 µM,52.7
Cc1ccc(S(=O)(=O)C2=C3C(=C(c4ccccc4)c4ccccc43)CN(S(=O)(=O)c3ccc(C)cc3)C2)cc1,4.85 µM,24.9,2.65 µM,38.1,11.5 µM,> 100,6.1 µM,30.3,5.31 µM,72.9,1.95 µM,18.2,1.86,13.8,2.43 µM,> 100,2.32 µM,16.3,9.71 µM,29.2
NS(=O)(=O)c1ccc(NCc2cnc3ccccc3c2)cc1,,> 100,,> 100,,> 100,,> 100,,> 100,,> 100,,> 100,,> 100,,> 100,,> 100
O=C(O)c1cn(C2CC2)c2cc(N3CCN(C(=O)Nc4nc(-c5ccc(Cl)cc5)cs4)CC3)c(F)cc2c1=O,2.4 µM,37.9,1.86 µM,50.9,3.81 µM,> 100,2.4 µM,6.85,3.61 µM,> 100,0.596 µM,33.7,1.85,7.63,2.55 µM,> 100,1.71 µM,> 100,1.47 µM,5.83
Cc1cccc2c(=O)c3c(sc12)c(NCCN)nc1ccccc13,0.811 µM,1.65,0.885 µM,1.98,0.851 µM,2.85,0.995 µM,2.15,0.935 µM,2.16,0.541 µM,1.15,0.691,2.45,0.678 µM,1.42,0.821 µM,1.58,0.841 µM,1.59
COC(C(=O)[C@@H](O)[C@@H](C)O)[C@@H]1Cc2cc3cc(O[C@H]4C[C@@H](O[C@H]5C[C@@H](O)[C@H](O)C(C)O5)[C@H](O)C(C)O4)c(C)c(O)c3c(O)c2C(=O)[C@H]1O[C@H]1C[C@@H](O[C@H]2C[C@@H](O[C@H]3C[C@@H](O)[C@@H](O)C(C)O3)[C@@H](O)C(C)O2)[C@H](O)C(C)O1 (some centres undefined),0.0564 µM,0.283,0.514 µM,> 32.5,5.78 µM,> 32.5,0.172 µM,1.11,0.571 µM,> 32.5,0.605 µM,4.75,0.119,2.03,0.0415 µM,> 32.5,6.59 µM,> 32.5,0.114 µM,2.41
COc1cc([C@@H]2c3cc4c(cc3[C@H](O)[C@H]3COC(=O)[C@@H]23)OCO4)cc(OC)c1OC,0.407 µM and 0.153 µM,> 100,0.707 µM and 0.397 µM,> 100,0.448 µM and 0.258 µM,> 35.8,0.445 µM and 0.584 µM,> 100,1.03 µM and 4.92 µM,> 100,0.48 µM and 0.602 µM,> 100,,> 88.6,0.321 µM and 0.0612 µM,> 100,0.415 µM and 0.327 µM,> 100,1.11 µM and 0.169 µM,> 100
O=C1/C(=c2\c3ccccc3n3c(=O)c4ccccc4nc23)Nc2ccccc21,,> 100,,> 100,,> 100,,> 100,,> 100,,> 100,,> 100,,> 100,,> 100,,> 100
